Experimental data as given in US9833497B2, “Human originated EGF domain proteins and use of the same” (CHENGDU SOURCEBIO LIMITED-LIABILITY COMPANY, priority 2013, dated 2017).

How the values were obtained:
Assay type in all cases: cell-based
Proteus vulgaris = assay: MIC against Gram-negative bacteria: Proteus vulgaris; details: 5×10^5 CFU/mL
Summary of the method: (§1)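 MIC = lowest concentration of recombinant protein showing no growth. Test proteins: purified human-derived EGF domain proteins, two-fold dilution series, three wells per concentration; inoculum 5×10^5 CFU/mL in LB; incubation 37° C with shaking at 175 rpm.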

Moraxella catarrhalis = assay: MIC against Gram-negative bacteria: Moraxella catarrhalis; details: 5×10^5 CFU/mL
Summary of the method: as §1

Serratia marcescens = assay: MIC against Gram-negative bacteria: Serratia marcescens; details: 5×10^5 CFU/mL
Summary of the method: as §1

Proteus mirabilis = assay: MIC against Gram-negative bacteria: Proteus mirabilis; details: 5×10^5 CFU/mL
Summary of the method: as §1

E. coli BL21 = assay: MIC against Gram-negative bacteria: E. coli BL21; details: 5×10^5 CFU/mL
Summary of the method: as §1

Enterobacter cloacae = assay: MIC against Gram-negative bacteria: Enterobacter cloacae; details: 5×10^5 CFU/mL
Summary of the method: as §1

Pseudomonas aeruginosa = assay: MIC against Gram-negative bacteria: Pseudomonas aeruginosa; details: 5×10^5 CFU/mL
Summary of the method: as §1

Aeromonas hydrophila = assay: MIC against Gram-negative bacteria: Aeromonas hydrophila; details: 5×10^5 CFU/mL
Summary of the method: as §1

E. coli DH5α = assay: Antibacterial activity: MIC and growth curve against E. coli DH5α in 96-well plate; details: minimal inhibitory concentration against E. coli DH5α; 96-well plate, 5×10^5 CFU/mL, 37° C., judged after 8 h
Summary of the method: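 MIC taken as lowest protein level with no bacterial growth, tracked by A600 every 30 min during 37 °C, 175 rpm culture. Two-fold protein series 50-12.5 μg/mL final, triplicate wells, against 5×10^5 CFU/mL of LB-washed mid-log cells.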

Citrobacter diversus = assay: MIC against Gram-negative bacteria: Citrobacter diversus; details: 5×10^5 CFU/mL
Summary of the method: as §1

Klebsiella pneumonia = assay: MIC against Gram-negative bacteria: Klebsiella pneumonia; details: 5×10^5 CFU/mL
Summary of the method: as §1

[1] = P. vulgaris, 10 h cultivation at 37° C.
[2] = M. catarrhalis, 10 h cultivation at 37° C.
[3] = S. marcescens, 10 h cultivation at 37° C.
[4] = P. mirabilis, 10 h cultivation at 37° C.
[5] = E. coli BL21, 10 h cultivation at 37° C.
[6] = E. cloacae, 10 h cultivation at 37° C.
[7] = P. aeruginosa, 10 h cultivation at 37° C.
[8] = A. hydrophila, 10 h cultivation at 37° C.
[9] = C. diversus, 10 h cultivation at 37° C.
[10] = K. pneumonia, 10 h cultivation at 37° C.

Substance: PRT547 (CQCHGHSDRCLPGSGVCVDCQHNTEGAHCERCQAGFVSSRDDPSAPCVS; listed as Homo sapiens)
- MIC against P. vulgaris (Proteus vulgaris; 96-well plate, 37° C., 10 h): 12.5 µg/mL
- MIC against M. catarrhalis (Moraxella catarrhalis; 96-well plate, 37° C., 10 h): 50 µg/mL
- MIC against S. marcescens (Serratia marcescens; 96-well plate, 37° C., 10 h): 25 µg/mL
- MIC against P. mirabilis (Proteus mirabilis; 96-well plate, 37° C., 10 h): 25 µg/mL
- MIC against E. coli BL21 (E. coli BL21; 96-well plate, 37° C., 10 h): 12.5 µg/mL
- MIC against E. cloacae (Enterobacter cloacae; 96-well plate, 37° C., 10 h): 25 µg/mL
- MIC against P. aeruginosa (Pseudomonas aeruginosa; 96-well plate, 37° C., 10 h): 25 µg/mL
- MIC against A. hydrophila (Aeromonas hydrophila; 96-well plate, 37° C., 10 h): 12.5 µg/mL
- MIC (E. coli DH5α): 25 µg/mL
- MIC against C. diversus (Citrobacter diversus; 96-well plate, 37° C., 10 h): 25 µg/mL
- MIC against K. pneumonia (Klebsiella pneumonia; 96-well plate, 37° C., 10 h): 50 µg/mL

Substance: PRT148 (LTDICSVSNGGCHPDASCSSTLGSLPLCTCLPGYTGN; listed as Homo sapiens)
- MIC (μg/mL) P. vulgaris (Proteus vulgaris; [1]): 12.5 µg/mL
- MIC (μg/mL) M. catarrhalis (Moraxella catarrhalis; [2]): 12.5 µg/mL
- MIC (μg/mL) S. marcescens (Serratia marcescens; [3]): 50 µg/mL
- MIC (μg/mL) P. mirabilis (Proteus mirabilis; [4]): 50 µg/mL
- MIC (μg/mL) E. coli BL21 (E. coli BL21; [5]): 50 µg/mL
- MIC (μg/mL) E. cloacae (Enterobacter cloacae; [6]): 50 µg/mL
- MIC (μg/mL) P. aeruginosa (Pseudomonas aeruginosa; [7]): 25 µg/mL
- MIC (μg/mL) A. hydrophila (Aeromonas hydrophila; [8]): 12.5 µg/mL
- MIC (E. coli DH5α): 25 µg/mL
- MIC (μg/mL) C. diversus (Citrobacter diversus; [9]): 50 µg/mL
- MIC (μg/mL) K. pneumonia (Klebsiella pneumonia; [10]): 12.5 µg/mL

Substance: PRT403 (DNDECSAQPGPCGAHGHCHNTPGSFRCECHQGFTLVSSGHGCE; listed as Homo sapiens)
- MIC (Proteus vulgaris; [1]): 25 µg/mL
- MIC (Moraxella catarrhalis; [2]): 25 µg/mL
- MIC (Serratia marcescens; [3]): 50 µg/mL
- MIC (Proteus mirabilis; [4]): 12.5 µg/mL
- MIC (E. coli BL21; [5]): 25 µg/mL
- MIC (Enterobacter cloacae; [6]): 12.5 µg/mL
- MIC (Pseudomonas aeruginosa; [7]): 50 µg/mL
- MIC (Aeromonas hydrophila; [8]): 25 µg/mL
- MIC (E. coli DH5α): 12.5 µg/mL
- MIC (Citrobacter diversus; [9]): 50 µg/mL
- MIC (Klebsiella pneumonia; [10]): 25 µg/mL

Substance: PRT718 (MTLCSALNCQYQCHETPYGGACFCPPGYIINHNDSRTCV; listed as Homo sapiens)
- MIC P. vulgaris (Proteus vulgaris; 96-well plate, 37° C., 10 h): 50 µg/mL
- MIC M. catarrhalis (Moraxella catarrhalis; 96-well plate, 37° C., 10 h): 12.5 µg/mL
- MIC S. marcescens (Serratia marcescens; 96-well plate, 37° C., 10 h): 12.5 µg/mL
- MIC P. mirabilis (Proteus mirabilis; 96-well plate, 37° C., 10 h): 25 µg/mL
- MIC E. coli BL21 (E. coli BL21; 96-well plate, 37° C., 10 h): 25 µg/mL
- MIC E. cloacae (Enterobacter cloacae; 96-well plate, 37° C., 10 h): 25 µg/mL
- MIC P. aeruginosa (Pseudomonas aeruginosa; 96-well plate, 37° C., 10 h): 50 µg/mL
- MIC A. hydrophila (Aeromonas hydrophila; 96-well plate, 37° C., 10 h): 25 µg/mL
- MIC (E. coli DH5α): 12.5 µg/mL
- MIC C. diversus (Citrobacter diversus; 96-well plate, 37° C., 10 h): 25 µg/mL
- MIC K. pneumonia (Klebsiella pneumonia; 96-well plate, 37° C., 10 h): 25 µg/mL

Substance: PRT785 (IHTCNCHNGAFCSAYDGECKCTPGWTGLYCT; listed as Homo sapiens)
- MIC (μg/mL) P. vulgaris (Proteus vulgaris; [1]): 25 µg/mL
- MIC (μg/mL) M. catarrhalis (Moraxella catarrhalis; [2]): 25 µg/mL
- MIC (μg/mL) S. marcescens (Serratia marcescens; [3]): 50 µg/mL
- MIC (μg/mL) P. mirabilis (Proteus mirabilis; [4]): 50 µg/mL
- MIC (μg/mL) E. coli BL21 (E. coli BL21; [5]): 50 µg/mL
- MIC (μg/mL) E. cloacae (Enterobacter cloacae; [6]): 12.5 µg/mL
- MIC (μg/mL) P. aeruginosa (Pseudomonas aeruginosa; [7]): 25 µg/mL
- MIC (μg/mL) A. hydrophila (Aeromonas hydrophila; [8]): 50 µg/mL
- MIC (E. coli DH5α): 25 µg/mL
- MIC (μg/mL) C. diversus (Citrobacter diversus; [9]): 12.5 µg/mL
- MIC (μg/mL) K. pneumonia (Klebsiella pneumonia; [10]): 25 µg/mL

Substance: PRT646 (DIDECTQVQHLCSQGRCENTEGSFLCICPAGFMASEEGTNCI; listed as Homo sapiens)
- MIC P. vulgaris (Proteus vulgaris; 96-well plate, 37° C., 10 h): 25 µg/mL
- MIC M. catarrhalis (Moraxella catarrhalis; 96-well plate, 37° C., 10 h): 25 µg/mL
- MIC S. marcescens (Serratia marcescens; 96-well plate, 37° C., 10 h): 50 µg/mL
- MIC P. mirabilis (Proteus mirabilis; 96-well plate, 37° C., 10 h): 12.5 µg/mL
- MIC E. coli BL21 (E. coli BL21; 96-well plate, 37° C., 10 h): 12.5 µg/mL
- MIC E. cloacae (Enterobacter cloacae; 96-well plate, 37° C., 10 h): 12.5 µg/mL
- MIC P. aeruginosa (Pseudomonas aeruginosa; 96-well plate, 37° C., 10 h): 12.5 µg/mL
- MIC A. hydrophila (Aeromonas hydrophila; 96-well plate, 37° C., 10 h): 25 µg/mL
- MIC (E. coli DH5α): 12.5 µg/mL
- MIC C. diversus (Citrobacter diversus; 96-well plate, 37° C., 10 h): 50 µg/mL
- MIC K. pneumonia (Klebsiella pneumonia; 96-well plate, 37° C., 10 h): 12.5 µg/mL
